Assay results taken from patent publication US11739087B2, “Inhibiting (α-v)(β-6) integrin” (Morphic Therapeutic, Inc., priority 2018, dated 2023).

Columns and labels:
[1] = MDCK permeability assay, wild type MDCK cells with no inhibitor (A→B); type: in vitro ADME, Canine; conditions: dog, no Pgp inhibitor, apical to basolateral
Procedure: (§1) Compounds were tested for permeability in an MDCK permeability assay. This assay measures the ability of compounds to cross a layer of Madin-Darby Canine Kidney (MDCK) cells from the apical to basolateral side (A→B). This measurement is predictive of the ability of compounds to be absorbed in the gut following oral dosing, an essential characteristic of an orally administered small molecule integrin inhibitor drug.
(§2) The assay is run in two formats. One uses wild type MDCK cells with no inhibitor. This method works well in determining the passive permeability of compounds with low efflux by P-glyocprotein (Pgp), and was used to assess permeability of a Reference Compound having the chemical formula shown below.
(§3) Cell Culture and Maintenance: • Cell stock cultures (MDCK or MDCK MDR1) are maintained in MEM+10% FBS+1% NEAA, grown in 75 cm^2 tissue culture treated flasks and split (passed) 2 times weekly to maintain desired confluence. • For maintenance passage: trypsinized cells are routinely distributed into new flasks at a standard passage ratio of 1:20.
(§4) Seeding assay plates: MDCK assay plates are seeded with MDCK or MDCK MCR1 cells 3-4 days prior to running the assay. 24-well plates are seeded at a cell density of 0.88×10^5/well in a 400 μL apical chamber volume (2.2×10^5/mL) with a […] volume of growth medium to the 24-well basal chamber. […]

[2] = tested on: Madin-Darby Canine Kidney (MDCK) cells; experiment: as above; type: in vitro ADME; conditions: no Pgp inhibitor, apical to basolateral
Procedure: as §1, §2, §3, §4

Papp A→B at 90 min, 5 μM [1]: < 0.23 ×10⁻⁶ cm/s
MDCK (A −> B) [2]: less than 0.23
Compound: O=C(O)CN1CCC(C(=O)N2CCC(c3ccc4c(n3)NCCC4)CC2)CC1 [Reference Compound]
